These results are taken from patent publication US20240207277A1, “Methods For Treating Drug and Vaccine Induced Immune Thrombocytopenia by Administering Specific Compounds” (Principia Biopharma Inc., priority 2021, published 2024).

For one data set, the target named is BTK enzyme (Homo sapiens, UniProt Q06187). Conditions: healthy volunteers; doses which provide 100% occupancy of the BTK enzyme; cited from earlier work.
In data set [1] the test system is washed platelets. Put plainly: Light transmission aggregometry of washed platelets stimulated with serum from patients with VITT. The format is cell-based, human. As to the method: Washed platelets were prepared from citrated whole blood as described in Nicolson et al., Low-dose BTK inhibitors selectively block platelet activation by CLEC-2, Haematologica 106(1):208-19 (2021). Briefly; citrated blood was taken from healthy, drug-free volunteers and mixed (1:10, v/v) with acid citrate dextrose and centrifuged (200×g, 20 minutes, RT) to produce platelet rich plasma. Platelet rich plasma was then centrifuged (1000×g, 10 minutes, RT) in the presence of 0.2 μg/mL prostacyclin. The platelet pellet was resuspended in modified-Tyrode's-HEPES buffer, prepared as described in Nicolson et al., acid citrate dextrose and 0.2 μg/mL prostacyclin and centrifuged (1000×g, 10 minutes, RT). Platelet pellet was resuspended in modified-Tyrode's-HEPES buffer to a concentration of 2×10^8/mL and allowed to rest for 30 minutes prior to use.
Aggregation was measured in washed platelets (2×10^8/mL) under stirring conditions (1200 rpm) at 37° C. using a light transmission aggregometer (Model 700, ChronoLog) for 20 minutes following stimulation with serum (1:15, v/v). Washed platelets were pre-incubated with IV.3 F(ab) for 5 minutes or with inhibitors for 10 minutes prior to stimulation with serum. Modified-Tyrode's-HEPES buffer or dimethyl sulfoxide (DMSO) was used as vehicle.

The test system of data set [2] is washed platelets. Put plainly: Light transmission aggregometry, aggregation to collagen. Type of data set: cell-based, human. Conditions: 3 μg/mL collagen; results not shown. As to the method: […] Modified-Tyrode's-HEPES buffer or dimethyl sulfoxide (DMSO) was used as vehicle.
We tested if the Btk inhibitor rilzabrutinib (rilzabrutinib powder prepared in DMSO (final 0.02% DMSO) to achieve a concentration of 0.5 μM) could prevent platelet aggregation in patient sera.

The next data set relates to 251-kinase panel. Put plainly: 251-kinase panel selectivity. The format is biochemical. Conditions: 1 μM.
Data set [3] is described as follows: Pharmacokinetics in humans after oral administration. The format is in vivo, human.
Data set [4] has as its system platelets. Put plainly: Normal platelet function in vitro. Type of data set: cell-based.
Data set [5] is described as follows: Bleeding in thrombocytopenic patients. Type of data set: in vivo, human.
For data set [6] the following is noted: in comparison to first and second generation BTKi; cited from earlier work.
For data set [7] the following is noted: Phase 2 trial; cited from earlier work.
Data set [8] concerns platelets. Put plainly: Heparin Induced Platelet Activation (HIPA) assay (HITAlert kit). Type of data set: cell-based, human. The source says: See, e.g., Greinacher et al., Thrombotic thrombocytopenia after ChAdOx1 nCov-19 vaccination, N Engl J Med, doi:10.1056/NEJMoa2104840 (2021); Schlutz et al., Thrombosis and thrombocytopenia after ChAdox1 nCoV-19 vaccination, N Engl J Med, doi:10.1056/NEJMoa2104882 (2021). Cross-sectional brain imaging verified the presence of cerebral venous sinus thrombosis (CVST) and intracerebral haemorrhage in three patients, and ischemic stroke caused by internal carotid artery thrombus in one patient.

A further data set has as its system platelets via FcγRIIA. The settings on record: both low and high concentrations of heparin; cited from earlier work.
For data set [9] the following is noted: human, in vivo; cited from earlier work.
Where [10] appears, read: HITAlert at presentation, serum of the individual VITT patient, normal range ≤ 8%.

Where “and” joins values, the source holds several entries; their conditions need not be identical. Equal entries are not always repeated. Entries after “also recorded” stand apart in the source; their conditions may differ. Where a SMILES comes first, the peptide text is derived from it. Bridges are numbered along the chain shown (N, C = ends). [ ]: non-standard residue; d: D form. hArg = N=C(N)NCCCC[C@H](N)C(=O)O; Mpa = O=C(O)CCS

BTK enzyme, sequence (Q06187 whole entry): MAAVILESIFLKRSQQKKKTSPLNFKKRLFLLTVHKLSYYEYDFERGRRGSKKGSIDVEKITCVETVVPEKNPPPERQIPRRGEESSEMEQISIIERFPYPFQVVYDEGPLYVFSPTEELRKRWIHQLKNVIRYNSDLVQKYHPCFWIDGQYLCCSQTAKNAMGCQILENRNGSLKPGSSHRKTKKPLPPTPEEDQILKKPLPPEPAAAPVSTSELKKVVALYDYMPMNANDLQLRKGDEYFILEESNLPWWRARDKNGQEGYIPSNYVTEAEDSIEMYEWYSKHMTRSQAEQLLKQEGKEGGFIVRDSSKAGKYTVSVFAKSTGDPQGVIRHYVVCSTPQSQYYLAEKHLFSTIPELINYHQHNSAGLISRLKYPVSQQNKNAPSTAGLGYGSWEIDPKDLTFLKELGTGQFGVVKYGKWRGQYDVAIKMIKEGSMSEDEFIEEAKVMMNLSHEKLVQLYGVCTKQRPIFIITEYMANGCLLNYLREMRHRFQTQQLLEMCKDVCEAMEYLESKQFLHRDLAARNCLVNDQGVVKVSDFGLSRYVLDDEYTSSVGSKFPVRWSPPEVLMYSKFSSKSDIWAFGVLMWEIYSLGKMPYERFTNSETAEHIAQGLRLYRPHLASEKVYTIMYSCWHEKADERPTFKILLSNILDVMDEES

`C=CC(=O)Nc1cccc(Nc2nc(Nc3ccc(OCCOC)cc3)ncc2F)c1` [CC-292, spebrutinib]: the tolerability entry at BTK enzyme was “well tolerated”.

By half-life is commonly meant the time needed for the level to fall by half in the phase considered. Read a low half-life as fast loss. Turning to `CC(C)(C=C(C#N)C(=O)N1CCC[C@@H](n2nc(-c3ccc(Oc4ccccc4)cc3F)c3c(N)ncnc32)C1)N1CCN(C2COC2)CC1` [Compound (I), (R)-2-[3-[4-amino-3-(2-fluoro-4-phenoxy-phenyl)pyrazolo[3,4-d]pyrimidin-1-yl]piperidine-1-carbonyl]-4-methyl-4-[4-(oxetan-3-yl)piperazin-1-yl]pent-2-enenitrile], the “platelet aggregation induced by serum from patients with VITT” value in the data set with washed platelets [1] (rilzabrutinib 0.5 μM, 10 minutes pre-incubation, washed platelets 2×10^8/mL, serum 1:15 v/v, n=7) is “prevented platelet aggregation; also recorded: blocks platelet aggregation”. For the same molecule, the aggregation to collagen result in the data set on washed platelets [2] is “fully inhibited”. Further, the “number of kinases with >90% inhibition” value with 251-kinase panel came to 6 kinases. In data set [3], the absorption result was “rapidly absorbed”. The molecule further returned a half-life in data set [3] (human, in vivo) of 3 to 4 h. The “impact on normal platelet function” value with platelets [4] is on record as “no impact”. For the same molecule, the association with bleeding result in [5] was “has not been associated with bleeding”. Also, the “cross-reactivity with other molecules” value in data set [6] was “minimal cross-reactivity”.

Turning to `N=C(N)c1ccc2cc(OC(=O)c3ccc(N=C(N)N)cc3)ccc2c1` [FUT-175], in the data set on washed platelets [1] (data not shown), the “effect on aggregation to patient sera (complement inhibitors)” value is “minor effects”.

For `CC[C@H](C)[C@H](N)C(=O)N[C@H]1CSSC[C@@H](C(=O)N[C@H](C(N)=O)[C@@H](C)O)NC(=O)[C@H](CCCN=C(N)N)NC(=O)[C@H](Cc2cnc[nH]2)NC(=O)[C@H](Cc2cnc[nH]2)NC(=O)CNC(=O)[C@H](Cc2c[nH]c3ccccc23)NC(=O)[C@H](CC(=O)O)NC(=O)[C@H](CCC(N)=O)NC(=O)[C@H](C(C)C)NC(=O)[C@H](C(C)C)NC1=O` [compstatin], the “effect on aggregation to patient sera (complement inhibitors)” value in the data set on washed platelets [1] (data not shown) is “minor effects”.

Consider `N=C(N)NCCCC[C@@H]1NC(=O)CCSSC[C@@H](C(N)=O)NC(=O)[C@@H]2CCCN2C(=O)[C@H](Cc2c[nH]c3ccccc23)NC(=O)[C@H](CC(=O)O)NC(=O)CNC1=O` [eptifibatide] ([Mpa][hArg]GDWPC-NH2; disulfide 1-7), for which the “response (aggregation) to patient sera” value in the data set with washed platelets [1] (eptifibatide 9 μM, data not shown) is recorded as “inhibited”.

For `C=CC(=O)N1CCC(CNc2ncnc(N)c2-c2ccc(Oc3ccccc3)cc2)CC1` [evobrutinib], the “efficacy for multiple sclerosis” value in [7] was “demonstrated efficacy”.

Take heparin: in the data set on washed platelets [1] (high heparin concentration (100 U/mL)), the “aggregation to VITT patient sera, high heparin” value is “blocked aggregation”. In addition, the “aggregation to VITT patient sera, low heparin” value in the data set with washed platelets [1] (low (0.2 U/mL) concentration of heparin, 7 patients) is listed as “prevented (5 of 7 patients) or delayed (2 of 7 patients)”. In the data set on platelets [8] (setting [10]), the “Platelet activation with serum and excess heparin” value is 0.64% and 3.68% and 1.43% and 4.38%; the “Platelet activation with serum and heparin” value is 18.53% and 18% and 36.5% and 22.63%. In the data set on platelets [8] (sera of four patients tested), the “platelet activation by patient sera, high concentration of heparin” value is reported as “blocked” and the “platelet activation by patient sera, low concentration of heparin” value is on record as “reduced”. Further, the “platelet activation by immune complexes” value in the data set with platelets via FcγRIIA was “blocked”. Also, the “deleterious effect in 1 patient with VITT” value in data set [9] is “without deleterious effect”.

B1: PF4: platelet factor 4 (protein, UniProt P02776 32-101, looked up)
Platelet factor 4: EAEEDGDLQCLCVKTTSQVRPRHITSLEVIKAGPHCPTAQLIATLKNGRKICLDLQAPLYKKIIKKLLES
B1: the “enhancement of partial aggregation to patient 2 serum” value with washed platelets [1] (10 μg/mL PF4, data not shown) was “No enhancement”.
